Assay [1] can be described thus: microbe, parasite or virus in culture. The format is functional. As to conditions: Mycobacterium tuberculosis.
Assay [2] in a line: THP-1 cell cytotoxicity, dose response, cytotoxicity control for non-replicating M. tuberculosis project (AID 489025). In kind it is functional.
Another assay in a line: cells. The format is functional.
Assay [3] deals with Aryl hydrocarbon receptor (Homo sapiens, UniProt P35869). Description: Luminescence-based cell-based high throughput dose response assay for activators of the Aryl Hydrocarbon Receptor (AHR). [Related pubchem assays: 2796 (Primary screen (AHR activators in singlicate)), 2845 (Confirmation screen (AHR activators in triplicate)), 434939 (Counterscreen (PXR activators in triplicate)), 2804 (Summary (AHR activators))]. The format is ADME.
Sequence of Aryl hydrocarbon receptor (P35869 whole entry): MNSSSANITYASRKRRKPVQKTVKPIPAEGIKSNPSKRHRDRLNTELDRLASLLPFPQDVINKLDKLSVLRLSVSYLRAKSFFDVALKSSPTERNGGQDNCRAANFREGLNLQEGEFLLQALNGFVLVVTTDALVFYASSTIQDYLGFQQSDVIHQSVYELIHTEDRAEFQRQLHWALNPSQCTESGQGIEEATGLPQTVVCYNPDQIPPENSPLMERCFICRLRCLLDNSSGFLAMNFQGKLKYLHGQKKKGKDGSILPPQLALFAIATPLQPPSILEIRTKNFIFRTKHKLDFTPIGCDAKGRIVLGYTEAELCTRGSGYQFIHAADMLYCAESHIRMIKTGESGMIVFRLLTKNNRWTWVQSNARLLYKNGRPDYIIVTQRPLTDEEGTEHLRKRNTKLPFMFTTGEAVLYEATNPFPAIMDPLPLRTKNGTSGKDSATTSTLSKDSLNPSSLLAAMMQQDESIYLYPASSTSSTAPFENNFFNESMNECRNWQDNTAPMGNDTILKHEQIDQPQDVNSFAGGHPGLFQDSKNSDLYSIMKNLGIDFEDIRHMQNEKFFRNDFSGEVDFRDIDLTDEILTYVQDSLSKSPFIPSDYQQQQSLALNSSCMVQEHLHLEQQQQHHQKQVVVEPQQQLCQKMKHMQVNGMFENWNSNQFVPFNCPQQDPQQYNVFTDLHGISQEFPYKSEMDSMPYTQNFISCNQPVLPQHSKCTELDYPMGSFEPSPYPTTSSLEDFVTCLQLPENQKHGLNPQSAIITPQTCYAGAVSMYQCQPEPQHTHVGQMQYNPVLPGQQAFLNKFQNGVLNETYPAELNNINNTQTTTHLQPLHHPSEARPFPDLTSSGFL

Assay [4] is described as follows: Vero E6 cell cytotoxicity, dose response, cytotoxicity control for non-replicating M. tuberculosis project, secondary assay (AID 492998). The format is functional, VeroE6. As to conditions: Vero C1008.
The target in assay [5] is Neuropeptide Y receptor type 2 (Homo sapiens, UniProt P49146). Description: IC50 for human NPY-Y2 blockade – cell-based, counter-screen for NPY-Y1 antagonist project, dose response (AID 1278). The format is functional.
Sequence of Neuropeptide Y receptor type 2 (P49146 whole entry): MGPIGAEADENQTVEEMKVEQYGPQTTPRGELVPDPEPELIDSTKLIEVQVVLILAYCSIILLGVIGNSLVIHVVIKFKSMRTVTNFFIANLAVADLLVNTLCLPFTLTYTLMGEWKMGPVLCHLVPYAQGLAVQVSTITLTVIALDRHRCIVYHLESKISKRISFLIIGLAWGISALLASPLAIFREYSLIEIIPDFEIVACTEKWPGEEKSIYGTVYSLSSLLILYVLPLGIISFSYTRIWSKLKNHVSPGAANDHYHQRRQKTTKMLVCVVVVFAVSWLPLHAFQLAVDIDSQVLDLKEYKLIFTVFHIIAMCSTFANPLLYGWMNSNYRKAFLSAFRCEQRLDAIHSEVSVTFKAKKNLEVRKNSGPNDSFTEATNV
Assay [6] is described as follows: Dd2 parasite growth inhibition in erythrocytes – SYBR Green, dry powder samples, set 9, dose response (AID 1159568). The format is functional, cell-based.
For assay [7], the target named is G-protein coupled receptor 183 (Homo sapiens, UniProt P32249). Description: SAR confirmation of small molecule antagonists of the EBI2 receptor via a luminescent beta-arrestin assa. The format is functional.
Sequence of G-protein coupled receptor 183 (P32249 whole entry): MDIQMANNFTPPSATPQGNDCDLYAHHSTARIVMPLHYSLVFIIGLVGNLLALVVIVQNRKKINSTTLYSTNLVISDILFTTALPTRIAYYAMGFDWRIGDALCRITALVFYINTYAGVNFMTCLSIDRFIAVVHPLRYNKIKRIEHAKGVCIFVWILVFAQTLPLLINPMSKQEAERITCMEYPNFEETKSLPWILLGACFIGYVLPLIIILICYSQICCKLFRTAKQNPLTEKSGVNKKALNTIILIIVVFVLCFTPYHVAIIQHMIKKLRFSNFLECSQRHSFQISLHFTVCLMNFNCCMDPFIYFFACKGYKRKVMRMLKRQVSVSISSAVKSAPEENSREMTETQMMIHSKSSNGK
The next assay addresses Phospholipase D2 (Homo sapiens, UniProt O14939). Description: PLD2 Cellular Concentration Response Study. The format is functional.
The target in the next assay is Phospholipase D1 (Homo sapiens, UniProt Q13393). Description: PLD1 Cellular Concentration Response Study. The format is functional.
Sequence of Phospholipase D1 (Q13393 whole entry): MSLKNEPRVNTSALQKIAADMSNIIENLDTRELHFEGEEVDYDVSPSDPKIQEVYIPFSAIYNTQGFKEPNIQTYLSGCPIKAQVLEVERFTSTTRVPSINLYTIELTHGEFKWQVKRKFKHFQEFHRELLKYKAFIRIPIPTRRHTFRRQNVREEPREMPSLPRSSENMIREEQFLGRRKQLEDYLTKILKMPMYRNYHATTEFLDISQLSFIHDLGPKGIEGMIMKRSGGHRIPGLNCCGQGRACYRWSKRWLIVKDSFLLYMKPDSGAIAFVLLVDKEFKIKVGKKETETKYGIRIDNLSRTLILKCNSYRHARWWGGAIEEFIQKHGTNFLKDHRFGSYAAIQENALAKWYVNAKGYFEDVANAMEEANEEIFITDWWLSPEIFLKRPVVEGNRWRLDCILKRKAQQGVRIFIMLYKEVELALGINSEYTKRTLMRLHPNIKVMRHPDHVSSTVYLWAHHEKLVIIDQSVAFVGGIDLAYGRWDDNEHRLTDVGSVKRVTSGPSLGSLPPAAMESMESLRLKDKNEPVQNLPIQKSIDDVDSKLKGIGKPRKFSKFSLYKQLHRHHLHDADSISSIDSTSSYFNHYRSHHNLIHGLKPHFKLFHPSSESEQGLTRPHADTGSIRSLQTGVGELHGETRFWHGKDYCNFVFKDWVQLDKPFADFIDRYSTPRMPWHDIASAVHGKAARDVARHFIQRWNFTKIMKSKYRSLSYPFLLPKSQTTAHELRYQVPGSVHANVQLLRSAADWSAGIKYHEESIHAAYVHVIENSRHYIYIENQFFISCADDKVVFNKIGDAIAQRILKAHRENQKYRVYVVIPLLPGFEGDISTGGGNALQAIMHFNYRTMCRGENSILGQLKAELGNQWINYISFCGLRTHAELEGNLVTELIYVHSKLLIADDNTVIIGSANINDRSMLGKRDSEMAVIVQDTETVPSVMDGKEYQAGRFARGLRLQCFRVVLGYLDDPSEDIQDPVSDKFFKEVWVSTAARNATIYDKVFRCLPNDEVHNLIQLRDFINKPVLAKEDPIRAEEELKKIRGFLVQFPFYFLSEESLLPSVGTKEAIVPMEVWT
Assay [8] has as its target Peroxisome proliferator-activated receptor gamma/Nuclear receptor coactivator 3 (Homo sapiens, UniProt P37231). Description: TR-FRET dose response biochemical High Throughput Screening assay for agonists of the steroid receptor coactivator 3 (SRC-3) recruitment by the peroxisome proliferator-activated receptor gamma (PPAR gamma): non-selective agonists. [Related pubchem assays: 1301 (Confirmation screen.), 1048 (Primary screen.)]. The format is functional.

Assay [9] concerns the target T1, Fibrinogen beta chain (Homo sapiens, UniProt P02675). Description: Fluorescence polarization-based biochemical high throughput dose response assay to identify inhibitors that disrupt the binding of a cyclic peptide (Tn7) to the fibrin proteolytic product D-Dimer and fragment E complex [DD(E )].
In assay [10] the target is Peroxisome proliferator-activated receptor gamma/Nuclear receptor coactivator 1 (Homo sapiens, UniProt P37231). Description: TR-FRET dose response biochemical High Throughput Screening assay for agonists of the steroid receptor coactivator 1 (SRC-1) recruitment by the peroxisome proliferator-activated receptor gamma (PPAR gamma): non-selective agonists. [Related pubchem assays (depositor defined):AID1300, AID1808, AID504735, AID631]. In kind it is protein assay.

For assay [11], the target named is SWI/SNF-related matrix-associated actin-dependent regulator of chromatin subfamily A member 2 (Homo sapiens, UniProt P51531). Description: Luminescence-based cell-based high throughput dose response assay to identify activators of the function of SWI/SNF related, matrix associated, actin dependent regulator of chromatin, subfamily a, member 2 (SMARCA2, BRM). In kind it is functional.
Sequence of SWI/SNF-related matrix-associated actin-dependent regulator of chromatin subfamily A member 2 (P51531 whole entry): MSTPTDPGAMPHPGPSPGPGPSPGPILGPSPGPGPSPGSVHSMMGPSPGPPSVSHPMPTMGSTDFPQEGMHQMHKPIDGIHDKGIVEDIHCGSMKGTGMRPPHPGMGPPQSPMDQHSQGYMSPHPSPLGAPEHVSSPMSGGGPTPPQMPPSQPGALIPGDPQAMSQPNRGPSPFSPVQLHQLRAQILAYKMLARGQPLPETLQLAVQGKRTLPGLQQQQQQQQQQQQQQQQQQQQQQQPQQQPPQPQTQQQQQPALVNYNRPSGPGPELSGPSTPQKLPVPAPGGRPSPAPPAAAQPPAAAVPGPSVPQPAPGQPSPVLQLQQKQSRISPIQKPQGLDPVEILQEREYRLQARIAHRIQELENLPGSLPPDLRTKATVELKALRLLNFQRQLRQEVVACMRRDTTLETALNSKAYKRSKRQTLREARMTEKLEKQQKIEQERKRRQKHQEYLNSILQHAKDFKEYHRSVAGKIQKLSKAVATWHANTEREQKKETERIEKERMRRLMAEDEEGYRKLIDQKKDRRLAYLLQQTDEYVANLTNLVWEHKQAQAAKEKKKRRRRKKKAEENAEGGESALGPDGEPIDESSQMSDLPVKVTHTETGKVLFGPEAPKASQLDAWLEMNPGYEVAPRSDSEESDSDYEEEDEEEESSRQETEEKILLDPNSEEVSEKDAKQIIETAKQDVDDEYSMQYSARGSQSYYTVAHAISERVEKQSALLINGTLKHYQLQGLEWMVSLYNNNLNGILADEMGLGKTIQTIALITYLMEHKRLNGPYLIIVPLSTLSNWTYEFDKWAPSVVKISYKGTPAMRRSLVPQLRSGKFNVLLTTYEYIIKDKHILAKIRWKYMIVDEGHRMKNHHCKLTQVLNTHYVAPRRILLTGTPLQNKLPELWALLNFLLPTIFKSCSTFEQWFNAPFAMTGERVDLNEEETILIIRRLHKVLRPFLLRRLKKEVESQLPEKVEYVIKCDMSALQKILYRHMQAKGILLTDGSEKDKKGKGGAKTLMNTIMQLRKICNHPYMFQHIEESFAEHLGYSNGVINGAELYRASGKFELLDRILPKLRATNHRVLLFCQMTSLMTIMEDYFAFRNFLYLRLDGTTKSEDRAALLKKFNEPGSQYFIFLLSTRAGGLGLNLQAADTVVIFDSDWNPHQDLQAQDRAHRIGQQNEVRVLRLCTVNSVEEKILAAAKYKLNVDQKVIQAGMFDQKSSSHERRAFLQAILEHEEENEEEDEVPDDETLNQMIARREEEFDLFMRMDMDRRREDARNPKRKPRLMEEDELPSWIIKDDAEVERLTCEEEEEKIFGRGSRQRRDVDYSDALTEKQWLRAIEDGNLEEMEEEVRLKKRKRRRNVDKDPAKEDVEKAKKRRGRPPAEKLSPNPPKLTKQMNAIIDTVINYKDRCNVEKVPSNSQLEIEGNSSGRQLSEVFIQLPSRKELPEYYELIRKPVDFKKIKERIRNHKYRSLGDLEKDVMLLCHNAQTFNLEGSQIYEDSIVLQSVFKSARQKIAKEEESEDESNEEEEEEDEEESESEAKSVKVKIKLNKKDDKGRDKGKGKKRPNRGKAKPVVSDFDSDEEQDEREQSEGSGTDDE

The nature of assay [12]: Counterscreen for activators of the function of SWI/SNF related, matrix associated, actin dependent regulator of chromatin, subfamily a, member 2 (SMARCA2, BRM): Luminescence-based cell-based high throughput dose response assay to identify non-selective compounds using the VP16 reporter assay. The format is functional.
Assay [13] addresses T1, Fibrinogen beta chain. Description: Fluorescence polarization-based biochemical high throughput dose response assay to identify inhibitors that disrupt the binding of a cyclic peptide (Tn6) to the fibrin proteolytic product D-Dimer and fragment E complex [DD(E )].
The target of assay [14] is Peroxisome proliferator-activated receptor gamma/Nuclear receptor coactivator 2 (Homo sapiens, UniProt P37231). Description: TR-FRET dose response biochemical High Throughput Screening assay for agonists of the steroid receptor coactivator 2 (SRC-2) recruitment by the peroxisome proliferator-activated receptor gamma (PPAR gamma): non-selective agonists. [Related pubchem assays: 1297, 1032 ]. The format is functional.

For assay [15], the target named is T2, Heat shock factor protein 1 (Mus musculus, UniProt P38532).
T2 sequence (P38532 whole entry): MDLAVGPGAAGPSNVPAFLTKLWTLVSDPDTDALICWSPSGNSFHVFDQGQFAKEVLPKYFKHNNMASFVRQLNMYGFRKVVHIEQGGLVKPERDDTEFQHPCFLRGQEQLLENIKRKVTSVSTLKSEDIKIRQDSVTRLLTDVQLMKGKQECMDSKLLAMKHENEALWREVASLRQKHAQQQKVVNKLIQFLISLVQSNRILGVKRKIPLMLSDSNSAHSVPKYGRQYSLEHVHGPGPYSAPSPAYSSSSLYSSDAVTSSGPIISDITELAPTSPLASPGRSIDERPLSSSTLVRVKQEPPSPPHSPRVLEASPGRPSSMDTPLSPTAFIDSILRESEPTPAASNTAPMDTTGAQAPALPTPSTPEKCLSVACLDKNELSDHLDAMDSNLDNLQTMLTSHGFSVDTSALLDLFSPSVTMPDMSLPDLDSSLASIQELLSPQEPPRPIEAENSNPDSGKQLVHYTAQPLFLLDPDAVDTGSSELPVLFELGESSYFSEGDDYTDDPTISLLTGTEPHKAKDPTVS
Description: enhancement of HSF1-driven luciferase signal – cell-based, NIH3T3, luminescence, dose retest, confirmation (AID 435004).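 Note: stress induced by proteasome inhibitor MG132 added 30 min after compound; luciferase reporter driven by HSF1 response element in NIH3T3 cells; actives raise luminescence as potentiators of the MG132 stress response.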 In kind it is functional.

For the next assay, the target named is Nonstructural protein 1 (Influenza A virus, UniProt Q194T2). The format is functional, Influenza A virus (A/California/07/2009(H1N1)).
Sequence of Nonstructural protein 1 (Q194T2 whole entry): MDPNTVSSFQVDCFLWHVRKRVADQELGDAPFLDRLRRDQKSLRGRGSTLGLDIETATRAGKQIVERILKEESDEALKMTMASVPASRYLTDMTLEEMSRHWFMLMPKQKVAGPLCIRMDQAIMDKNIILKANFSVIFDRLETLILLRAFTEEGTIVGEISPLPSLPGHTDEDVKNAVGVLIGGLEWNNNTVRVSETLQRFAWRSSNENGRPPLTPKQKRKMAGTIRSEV
The nature of assay [16]: cytotoxicity toward HCT116 cells – cell-based, CellTiter-Glo luminescence, IC50, dose response (AID 1117332). The format is functional. The settings on record: HCT-116.
Assay [17] in a line: SNU-C1 cell viability reduction, dose response, CellTiter-Glo luminescence (AID 1117323). The format is functional, cell-based.
Assay [18] in a line: HCT116 cell viability decrease, GSK3B pretreatment – CellTiter-Glo, IC50, dose response (AID 1117339). The format is functional. As to conditions: HCT-116.
Assay [19] in a line: Reduced DLD-1 viability, concentration-response, CellTiter-Glo luminescence (AID 1117352). In kind it is functional.
Assay [20] is described as follows: cytotoxicity toward HT-29 cells – cell-based, CellTiter-Glo luminescence, IC50, dose response (AID 1117330). The format is functional.
The nature of assay [21]: RKO cell viability reduction, dose response, CellTiter-Glo luminescence (AID 1117322). In kind it is functional.
Assay [22] can be described thus: CellTiter-Glo luminescence survival assay, SW480 colon tumor line, concentration-response curve, half-maximal inhibitory concentration (AID 1117338). In kind it is functional.
Assay [23] in a line: cytotoxicity toward Colo320 cells – cell-based, CellTiter-Glo luminescence, IC50, dose response (AID 1117334). The format is functional. As to conditions: COLO 320.
Assay [24] can be described thus: rise of 4N DNA cells, HeLa – IC50, dose response (AID 1117351). The format is functional, cell-based.
A short description of assay [25]: rise of 2N DNA cells, HeLa – IC50, dose response (AID 1117349). The format is functional, cell-based.

Structures are written as SMILES. Active and inactive are the calls of the source.

T1 sequence (P02675 whole entry, the tested form may be a part): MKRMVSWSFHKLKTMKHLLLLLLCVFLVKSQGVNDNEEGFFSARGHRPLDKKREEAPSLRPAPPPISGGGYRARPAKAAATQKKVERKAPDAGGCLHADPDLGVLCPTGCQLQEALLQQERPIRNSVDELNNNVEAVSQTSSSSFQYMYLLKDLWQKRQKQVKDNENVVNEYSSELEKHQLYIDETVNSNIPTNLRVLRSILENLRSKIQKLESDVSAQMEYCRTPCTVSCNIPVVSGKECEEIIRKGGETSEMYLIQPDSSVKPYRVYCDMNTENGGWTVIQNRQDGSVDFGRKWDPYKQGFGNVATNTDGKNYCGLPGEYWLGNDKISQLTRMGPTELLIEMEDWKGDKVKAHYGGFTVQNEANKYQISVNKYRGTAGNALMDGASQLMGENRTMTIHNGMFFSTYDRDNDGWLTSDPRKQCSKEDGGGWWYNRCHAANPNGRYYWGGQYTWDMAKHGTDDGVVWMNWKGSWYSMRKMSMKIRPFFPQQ

On to `O=[N+]([O-])c1cc(-c2nc(-c3ccncc3)no2)cc([N+](=O)[O-])c1`, for which the results for the CC50 in assay [1], in assay [2] and in assay [4] were > 40 µM (active), 37.5 µM (active) and > 20 µM (active), respectively. Moreover, in the assay “cells”, the concentration for half-maximal inhibition (IC50) was 3.13 µM (active). In addition, the EC50 in assay [3] is 2.67 µM (active).

Regarding `CC(C)CC(c1nnnn1C1CCCC1)N1CCN(c2ccccc2F)CC1` (centres undefined), in assay [5], the IC50 is recorded as 24.4 µM (not active).

As for `C[C@H](CO)N1C[C@H](C)[C@@H](CN(C)S(=O)(=O)c2ccc(F)cc2)OCCCC[C@H](C)Oc2ccc(N(C)C)cc2C1=O`, the AC50 in [6] was 5.9 µM (active).

Turning to `COc1ccc(S(=O)(=O)N2CCN(C(=O)/C=C/c3ccc(F)cc3)CC2)cc1`, in assay [7], the IC50 is 0.0121 µM (active).

Turning to `O=C(NCCN1CCC2(CC1)C(=O)NCN2C(=O)c1cccc(F)c1)c1ccc2ccccc2c1`, the figures for the 50% inhibitory concentration (IC50) on Phospholipase D2 and on Phospholipase D1 were 2.75 µM (active) and 8.76 µM (active), respectively.

Take `COc1ccc(N)c2c1C(=O)c1ccccc1C2=O`: the half-maximal effective concentration (EC50) was 119 µM (not active) in assay [8]; 20.2 µM (inactive) in [10]; > 91.1 µM (inactive) in assay [11]; > 91.1 µM (inactive) in assay [12]; 10.7 µM (not active) in [14]; > 260 µM (inactive) in [15]. Besides, the values for the IC50 on Fibrinogen beta chain [9], at Fibrinogen beta chain [13] and on Nonstructural protein 1 were > 83.2 µM (inactive), 4.98 µM (active) and 31 µM (active), respectively.

In the case of `ClC1=C(Cl)C2(Cl)C(CBr)CC1(Cl)C2(Cl)Cl` (centres undefined) [BROMOCICLEN], the IC50 in assay [16], in assay [17], in [18], in assay [19], in assay [20] and in [21] was > 20 µM (inactive) each time. Also, the IC50 in assay [22] and in [23] was > 20 µM (inactive) in each case.

As to `C=C(C)[C@H]1Cc2c(ccc3c2O[C@@H]2COc4cc(OC)c(OC)cc4[C@@H]2C3=O)O1` [ROTENONE], the IC50 in assay [24] and in assay [25] was 0.311 µM (active) in each case.

The values are drawn from ChEMBL document CHEMBL1201862, “PubChem BioAssay data set” (2004).
